Data as given in patent US20220409620A1, “REDUCING IMMUNOGENICITY TO PEGLOTICASE” (Horizon Pharma Rheumatology LLC, priority 2016, published 2022).

System: adult patients with uncontrolled gout
Assay: Serum uric acid (sUA) levels and sUA responder rate, open-label study of pegloticase with MTX (MIRROR OL)
Assay type: in vivo, human
Protocol: The primary objective is to estimate the response rate during Month 6 (Weeks 20, 22, and 24), as measured by the sustained normalization of serum uric acid (SUA) to <6 mg/dL for at least 80% of the time during Month 6 in subjects receiving KXX with MTX.
The primary efficacy outcome endpoint is the sustained normalization of SUA to <6 mg/dL for at least 80% of the time during month 6 (weeks 20, 22, and 24) in subjects receiving KXX with MTX. […] Participants who achieve this endpoint were classified as “responders.” Serum uric acid (SUA) responders may also be defined as participants achieving and maintaining SUA <6 mg/dL for at least 80% of the time during Month 6 (Weeks 20, 22, and 24).
Blood samples may be collected prior to each pegloticase infusion for measurement of SUA levels using the Beckman Coulter AU System Uric Acid procedure. Participants were declared “non-responders” if there were SUA measures >6 mg/dL at 2 consecutive study visits beginning with the week 2 visit. […] This assumption and subsequent discontinuation of pegloticase was consistent with the protocol of large phase III randomized controlled trials and the product label. A formal stopping rule was 2 occasions of SUA levels of greater than 6 mg/dL.
Clinical Chemistry—Blood samples were collected prior to each pegloticase infusion for measurement of SUA levels (primary efficacy parameter) using the Beckman Coulter AU System Uric Acid procedure. In this procedure uric acid is converted to hydrogen peroxide. Hydrogen peroxide reacts with reagent to produce a chromophore which is read bichromatically at 660/800 nm. The amount of dye formed is proportional to the uric acid concentration in the sample.
Serum samples for measurement of SUA levels were collected at the Screening Visit, the Week −4 Visit (prior to the first dose of MTX), and the Week −2 Visit during the MTX Run-in Period; within 48 hours prior to each pegloticase infusion and after the end of each pegloticase infusion prior to discharge from the site during the Pegloticase+IMM Period; at the non-infusion Week 52/End of Study/Early Termination Visits and at the Post Treatment 3 and 6 Month Follow-up Visits. Additional serum samples for SUA levels were collected at optional non-infusion (Frequent Sampling) Visits at Weeks 1 and 7. […] Subjects with SUA level >6 mg/dL at 2 consecutive visits beginning at Week 2 visit discontinued treatment, completed the End of Pegloticase Infusion Visit procedures within 2 weeks and continued the subject visits according to the protocol (without treatment).
Efficacy analyses were performed using the modified intention-to-treat (mITT) population, defined as all enrolled subjects who received ≥1 dose of pegloticase. The proportion of Month 6 responders was summarized, along with a 95% confidence interval for the proportion. The proportion of Month 3 and overall (Months 3 and 6 combined) responders was analyzed similarly.
A subject was declared a non-responder if the subject had SUA level >6 mg/dL at 2 consecutive study visits beginning with the Week 2 Visit. In addition, a subject who withdraws from study treatment for any reason after the first dose of pegloticase in the KXX+MTX Period and prior to Month 6 (for the primary endpoint) or Month 3 (for the secondary endpoint) was considered a non-responder if SUA values were not collected at the planned time points.
Patients were administered oral MTX (15 mg/week) and folate (1 mg/day) 4 weeks prior to the first pegloticase infusion (Day 1) and throughout the pegloticase treatment period. Blood was drawn prior to each infusion to measure sUA level, monitor clinical parameters, and examine for ADA development. All patients followed typical IR prophylaxis protocols (fexofenadine one day before and the morning of each infusion and acetaminophen and IV corticosteroid the morning of each infusion).

[1] = Day 1 - Post-Infusion, mITT Population
[2] = Early Termination Visit, mITT Population
[3] = End of Pegloticase Infusions Visit, mITT Population
[4] = Month 6 sUA Non-Responders, Day 1-Post-Infusion, n=3
[5] = Month 6 sUA Non-Responders, Early Termination Visit, n=3
[6] = Month 6 sUA Non-Responders, Week 1, n=2
[7] = Month 6 sUA Non-Responders, Week 2-Post-Infusion, n=3
[8] = Month 6 sUA Non-Responders, Week 2-Pre-Infusion, n=3
[9] = Month 6 sUA Non-Responders, Week 4-Pre-Infusion, n=3
[10] = Month 6 sUA Non-Responders, Week 8-Post-Infusion, n=1
[11] = Month 6 sUA Non-Responders, Week 8-Pre-Infusion, n=1
[12] = Month 6 sUA Non-Responders, Week 10-Pre-Infusion, n=1
[13] = Month 6 sUA Responders, Day 1-Post-Infusion, n=8

Substance: pegloticase
- Serum Uric Acid, Change from Baseline, Mean (SD) [1]: −7.29 (2.254) mg/dL
- Serum Uric Acid, Change from Baseline, Median [1]: -7.30 mg/dL
- Serum Uric Acid, Observed, Mean (SD) [1]: 1.18 (1.417) mg/dL
- Serum Uric Acid, Observed, Median [1]: 0.30 mg/dL
- sUA <6 mg/dL, n (%) [1]: 11 (100%)
- Serum Uric Acid, Change from Baseline, Mean (SD) [2]: −0.57 (0.635) mg/dL
- Serum Uric Acid, Change from Baseline, Median [2]: -0.20 mg/dL
- Serum Uric Acid, Observed, Mean (SD) [2]: 8.17 (0.058) mg/dL
- Serum Uric Acid, Observed, Median [2]: 8.20 mg/dL
- sUA <6 mg/dL, n (%) (Early Termination Visit, mITT Population, number of subjects (% not given)): 0
- Serum Uric Acid, Change from Baseline, Mean (SD) [3]: −8.50 (1.556) mg/dL
- Serum Uric Acid, Change from Baseline, Median [3]: -8.50 mg/dL
- Serum Uric Acid, Observed, Mean (SD) [3]: 0.30 (0.000) mg/dL
- Serum Uric Acid, Observed, Median [3]: 0.30 mg/dL
- sUA <6 mg/dL, n (%) [3]: 2 (100%)
- Serum Uric Acid, Change from Baseline, Mean (SD) [4]: −6.60 (2.848) mg/dL
- Serum Uric Acid, Change from Baseline, Median [4]: -7.20 mg/dL
- Serum Uric Acid, Observed, Mean (SD) [4]: 2.13 (2.438) mg/dL
- Serum Uric Acid, Observed, Median [4]: 1.20 mg/dL
- sUA <6 mg/dL, n (%) [4]: 3 (100%)
- Serum Uric Acid, Change from Baseline, Mean (SD) [5]: −0.57 (0.635) mg/dL
- Serum Uric Acid, Change from Baseline, Median [5]: -0.20 mg/dL
- Serum Uric Acid, Observed, Mean (SD) [5]: 8.17 (0.058) mg/dL
- Serum Uric Acid, Observed, Median [5]: 8.20 mg/dL
- sUA <6 mg/dL, n (%) [5]: 0%
- Serum Uric Acid, Change from Baseline, Mean (SD) [6]: −8.10 (0.000) mg/dL
- Serum Uric Acid, Change from Baseline, Median [6]: -8.10 mg/dL
- Serum Uric Acid, Observed, Mean (SD) [6]: 0.30 (0.000) mg/dL
- Serum Uric Acid, Observed, Median [6]: 0.30 mg/dL
- sUA <6 mg/dL, n (%) [6]: 2 (100%)
- Serum Uric Acid, Change from Baseline, Mean (SD) [7]: −8.43 (0.577) mg/dL
- Serum Uric Acid, Change from Baseline, Median [7]: -8.10 mg/dL
- Serum Uric Acid, Observed, Mean (SD) [7]: 0.30 (0.000) mg/dL
- Serum Uric Acid, Observed, Median [7]: 0.30 mg/dL
- sUA <6 mg/dL, n (%) [7]: 3 (100%)
- Serum Uric Acid, Change from Baseline, Mean (SD) [8]: −5.17 (4.225) mg/dL
- Serum Uric Acid, Change from Baseline, Median [8]: -5.70 mg/dL
- Serum Uric Acid, Observed, Mean (SD) [8]: 3.57 (3.775) mg/dL
- Serum Uric Acid, Observed, Median [8]: 2.70 mg/dL
- sUA <6 mg/dL, n (%) [8]: 2 (66.7%)
- Serum Uric Acid, Change from Baseline, Mean (SD) [9]: −3.70 (4.744) mg/dL
- Serum Uric Acid, Change from Baseline, Median [9]: -1.80 mg/dL
- Serum Uric Acid, Observed, Mean (SD) [9]: 5.03 (4.177) mg/dL
- Serum Uric Acid, Observed, Median [9]: 6.60 mg/dL
- Serum Uric Acid, Change from Baseline, Mean (SD) [10]: −9.10 (NE) mg/dL
- Serum Uric Acid, Change from Baseline, Median [10]: -9.10 mg/dL
- Serum Uric Acid, Observed, Mean (SD) [10]: 0.30 (NE) mg/dL
- Serum Uric Acid, Observed, Median [10]: 0.30 mg/dL
- sUA <6 mg/dL, n (%) [10]: 1 (100%)
- Serum Uric Acid, Change from Baseline, Mean (SD) [11]: −0.50 (NE) mg/dL
- Serum Uric Acid, Change from Baseline, Median [11]: -0.50 mg/dL
- Serum Uric Acid, Observed, Mean (SD) [11]: 8.90 (NE) mg/dL
- Serum Uric Acid, Observed, Median [11]: 8.90 mg/dL
- sUA <6 mg/dL, n (%) [11]: 0%
- Serum Uric Acid, Change from Baseline, Mean (SD) [12]: −1.30 (NE) mg/dL
- Serum Uric Acid, Change from Baseline, Median [12]: -1.30 mg/dL
- Serum Uric Acid, Observed, Mean (SD) [12]: 8.10 (NE) mg/dL
- Serum Uric Acid, Observed, Median [12]: 8.10 mg/dL
- sUA <6 mg/dL, n (%) [12]: 0%
- Serum Uric Acid, Change from Baseline, Mean (SD) [13]: −7.55 (2.158) mg/dL
- Serum Uric Acid, Change from Baseline, Median [13]: -7.50 mg/dL
- Serum Uric Acid, Observed, Mean (SD) [13]: 0.83 (0.798) mg/dL
